Experimental data reported in PMC7862507, “Adrenomedullin for steroid-resistant ulcerative colitis: a randomized, double-blind, placebo-controlled phase-2a clinical trial” (Journal of Gastroenterology, 2020).

Tests used:
[1] = tested on: patients with steroid-resistant UC; test: Dose of concomitant steroid, phase-2a clinical trial; type: in vivo, Japanese patients; settings: n = 3, mean ± SD, placebo 11.3 ± 6.4
Experimental: After hospitalization, patients received a continuous infusion of the assigned drug for 8 h per day for a total of 14 days. After the final administration of the investigational drug, patients were subjected to safety examinations and then discharged. But, if necessary due to disease activity, continuous hospitalization was allowed. Patients were requested to make an office visit at 4 and 8 weeks. Evaluations of their Mayo scores including endoscopic examinations were done at 2 and 8 weeks, whereas evaluation of the Lichtiger index was done at 2, 4, and 8 weeks. The dose of concomitant steroid was maintained for 2 weeks after drug administration, and then, a reduction in the steroid dose was allowed depending on the disease condition. Changes to the doses of other drugs, such as aminosalicylic acid, were prohibited throughout the trial.
All data were collected at each institute from March 2017 to April 2019. The primary endpoint was the change in the Mayo scores at 2 weeks. Secondary endpoints included the change in the Mayo scores at 8 weeks and the rate of clinical remission at 2 and 8 weeks, defined as a Mayo score 0; the response rate of the Mayo scores at 2 and 8 weeks, defined as an improvement of a 3-point or more decrease or at least a 30% decrease from baseline; the changes in MES at 2 and 8 weeks; the changes in the Lichtiger index at 2, 4, and 8 weeks; the changes in fecal calprotectin and FIT at 2 weeks; and finally, the changes in the given dose of steroid.
The significant level for each test was 5%. […] All data are shown as mean ± standard deviation (SD).

[2] = Plasma concentration of adrenomedullin (pharmacokinetics); settings: human, intravenous
Experimental: Serum concentrations of AM were assessed at predose, 4 and 8 h, and 2 h after administration (10 h after the start of drug administration) on 1, 8, and 14 days of the administration. […] Measurements and data processing were carried by the Bozo Research Centre (Tsukuba, Japan). The evaluated pharmacokinetic (PK) parameters included the maximum measured plasma concentration (Cmax); the time to maximum measured plasma concentration (Tmax); and the cumulative area under the plasma concentration–time curve (AUC) from time 0 to time 10 h.
The Cmax and Tmax values were obtained directly from the data, while the AUC was calculated using the Phoenix WinNonlin software 6·1 (Pharsight, CA, USA). All data are shown as mean ± standard deviation (SD).

AUC(0-t) ([2]; 5 ng/kg/min): 0.152 ± 0.034 ng·h/mL
AUC(0-t) ([2]; 10 ng/kg/min): 0.281 ± 0.039 ng·h/mL
AUC(0-t) ([2]; 15 ng/kg/min): 0.44 ± 0.191 ng·h/mL
SMILES: CC[C@H](C)[C@H](NC(=O)[C@H](CCC(N)=O)NC(=O)[C@H](Cc1c[nH]cn1)NC(=O)[C@H](C)NC(=O)[C@H](CC(C)C)NC(=O)[C@H](CCCCN)NC(=O)[C@H](CCC(N)=O)NC(=O)[C@@H](NC(=O)[C@@H](NC(=O)[C@@H]1CSSC[C@H](NC(=O)CNC(=O)[C@H](Cc2ccccc2)NC(=O)[C@H](CO)NC(=O)[C@H](CCCNC(=N)N)NC(=O)[C@H](CC(C)C)NC(=O)CNC(=O)[C@H](CCC(N)=O)NC(=O)[C@H](Cc2ccccc2)NC(=O)[C@H](CC(N)=O)NC(=O)[C@H](CC(N)=O)NC(=O)[C@H](CCSC)NC(=O)[C@H](CO)NC(=O)[C@H](CCC(N)=O)NC(=O)[C@H](CCCNC(=N)N)NC(=O)[C@@H](N)Cc2ccc(O)cc2)C(=O)N[C@@H](CCCNC(=N)N)C(=O)N[C@@H](Cc2ccccc2)C(=O)NCC(=O)N[C@@H]([C@@H](C)O)C(=O)N1)[C@@H](C)O)C(C)C)C(=O)N[C@@H](Cc1ccc(O)cc1)C(=O)N[C@@H](CCC(N)=O)C(=O)N[C@@H](Cc1ccccc1)C(=O)N[C@H](C(=O)N[C@@H](CC(=O)O)C(=O)N[C@@H](CCCCN)C(=O)N[C@@H](CC(=O)O)C(=O)N[C@@H](CCCCN)C(=O)N[C@@H](CC(=O)O)C(=O)N[C@@H](CC(N)=O)C(=O)N[C@H](C(=O)N[C@@H](C)C(=O)N1CCC[C@H]1C(=O)N[C@@H](CCCNC(=N)N)C(=O)N[C@@H](CO)C(=O)N[C@@H](CCCCN)C(=O)N[C@H](C(=O)N[C@@H](CO)C(=O)N1CCC[C@H]1C(=O)N[C@@H](CCC(N)=O)C(=O)NCC(=O)N[C@@H](Cc1ccc(O)cc1)C(N)=O)[C@@H](C)CC)C(C)C)[C@@H](C)O [Adrenomedullin]
dose of steroid at 8 weeks ([1]; AM 5 ng/kg/min group): 5.0 ± 8.7 mg
dose of steroid at 8 weeks ([1]; AM 10 ng/kg/min group): 10.0 ± 10.0 mg
dose of steroid at 8 weeks ([1]; AM 15 ng/kg/min group): 16.7 ± 12.6 mg
